In paper PMC9061853, “Luminescent bis(benzo[d]thiazolyl)quinoxaline: facile synthesis, nucleic acid and protein BSA interaction, live-cell imaging, biopharmaceutical research and cancer theranostic application” (RSC Advances, 2019):

Key:
[1] = Stability in water, GSH and MTT condition by UV-vis spectroscopy; assay type: physicochemical
Method: The stability of compounds in water, GSH, and MTT condition (10% DMSO in PBS buffer) was studied. Water is a key factor because it widens the application in the biological field. […] The stability of complex 7e in water (pH 7.2) and GSH were investigated by UV-vis spectroscopy over a period of 20 h of time (Fig. S2a and b ^†).

CT-DNA = test: UV-visible absorption titration with CT-DNA; assay type: binding
Method: DNA is one of the key target for cancer therapy. The drug molecules bind with the DNA by three major modes (i) electrostatic interactions with the DNA double helix (ii) binding to grooves of DNA (iii) intercalation between the base pairs of DNA.[25] The titration in UV was performed by increasing concentration of DNA from 10–60 μM into a fixed drug concentration (20 μM). The intra-ligand absorption bands around 290–350 nm (π–π* transition) were used in observation of the interaction of DNA and compound 7e (Fig. S3a ^†). […] Ethidium bromide, a nonspecific intercalator, gives a strong fluorescence while intercalating DNA base pairs. This enhanced fluorescence can be quenched by another chemical moiety which can competitively replace EtBr and binds to the same site.[27] […] The original fluorescence intensity of EtBr–DNA complex is rapidly quenched by increasing the concentration of compound 7e (Fig. S3c ^†). […]
Then the 96 well plate was placed on the shaker for 10 min and subsequently the absorbance was recorded by the ELISA reader at λ = 490 nm. […] The data were expressed as the growth inhibition percentage calculated according to the equation: % growth inhibition = 100 − [(AD × 100)/AB], where AD is the absorbance measured for sample and AB is the absorbance measured for blank wells (cells with a […]
with DNA. The absorbance of the complex was measured after each succeeding addition of […]

[2] = Metabolic stability in human liver microsomes; assay type: in vitro ADME; details: for % Metabolism in 30 min: 0.5 μM, 0.5 mg ml^−1 protein, NADPH, 37 °C; for half-life at 0.5 μM: human, liver microsomes
Method: The in vitro metabolic rate of 7g was determined in liver microsomes and the intrinsic clearance (CLintr) was estimated. The study was conducted at 0.5 μM substrate concentration and microsomal protein concentration of 0.5 mg ml^−1. Metabolic stability study in the presence of microsomes and cofactor NADPH was performed at 37 °C, 60 rpm for 30 min time duration. NADPH free control incubation was performed simultaneously for 30 min to understand if there are any non-enzymatic metabolism related issues. […] Intrinsic clearance as given in Table 6, was calculated using eqn (8). ^†

[3] = Buffer solubility (LC-MS/MS); assay type: physicochemical; details: aqueous buffer, kinetic from dmso stock; pH 7.4 buffer, 2 h incubation
Method: LC-MS/MS methods were developed for compound 7g to quantify the drug concentration and in vitro study (i.e. buffer solubility, buffer stability, metabolic stability, and permeability) in a systemic manner (Table 4). Chromatographic elution conditions were set with the use of 5 mM ammonium formate containing 0.1% formic acid and acetonitrile containing 0.1% formic acid with C8, Kromasil, and 4.6 × […] as a stationary phase (Fig. S5a and b ^†). […] For the data analysis, % accuracy of compound 7g was calculated and it was soluble up to 25 μM (Fig. 3, eqn (7) ^†).
The in vitro solubility and stability of 7g were evaluated in pH 7.4 buffer. The buffer solubility and stability studies were conducted at six different concentrations ranging from 3.13 to 100 μM. For the data analysis, % stability of compound 7g at 120 min was calculated with respect to 0 min time point samples and it was stable up to 2 hours in pH 7.4 buffers. Data analysis was performed through the eqn (8) ^† and was tabulated (Table 4). Compound 7g found to be stable up to 2 hours with % remaining of 71% in pH 7.4.

Row | CLint ([2]; HLM set 1) [μl per min per mg protein] | % Metabolism in 30 min ([2]; HLM set 1) [%] | CLint ([2]; HLM set 2) [μl per min per mg protein] | % Metabolism in 30 min ([2]; HLM set 2) [%] | half-life at 0.5 μM ([2]; HLM set 1) [min] | half-life at 0.5 μM ([2]; HLM set 2) [min] | solubility at 2 h [3] [µM] | SMILES | stability in MTT condition ([1]; 10% DMSO in PBS buffer, 18 h) | stability in GSH ([1]; GSH, 20 h) | stability in water ([1]; water pH 7.2, 20 h) | K b, intrinsic DNA binding constant (CT-DNA; UV-visible absorption titration, 7e 20 μM, DNA 10–60 μM) [M⁻¹] | % Hypochromism (CT-DNA; UV-visible titration with CT-DNA) [%]
1 | – | – | – | – | – | – | – | Clc1cc2nc(COc3ccccc3-c3nc4ccccc4s3)c(COc3ccccc3-c3nc4ccccc4s3)nc2cc1Cl [Compound 7e] | insignificant change of absorbance | no changes in absorbance | no changes in absorbance | 6900 | 50
2 | 28 | 35 | 25 | 38 | 49.3 | 55.9 | ≤ 25 | COc1ccc2nc(COc3ccccc3-c3nc4ccccc4s3)c(COc3ccccc3-c3nc4ccccc4s3)nc2c1 [Compound 7g, 2,2'-((((6-methoxyquinoxaline-2,3-diyl)bis(methylene))bis(oxy))bis(2,1-phenylene))bis(benzo[d]thiazole)] | – | – | – | – | –
